Literature values, collected in patent US20020165594A1, “Apparatus and method of photodynamic eradication of organisms utilizing pyrrolnitrin” (Merrill A. Biel, priority 2001, published 2002).

Settings: orally and intravenously in high doses

## CN(C)c1ccc2nc3ccc(=[N+](C)C)cc-3sc2c1 [Methylene blue]
  toxic effects on administration to humans: without any toxic effects
